According to patent US9062078B2, “Substituted 7-azabicyles and their use as orexin receptor modulators” (priority 2013, dated 2015):
Read-outs that look alike come from different tables or passages of the source.

Experiments:
rat orexin 1 receptor = rat orexin 1 receptor (Rattus norvegicus, UniProt P56718); assay: Rat orexin 1 receptor radioligand binding (competitive, [3H]-SB674042, HEK293 cell preparations)
human orexin 1 receptor = human orexin 1 receptor (Homo sapiens (Human), UniProt O43613); assay: Human orexin 1 receptor radioligand binding (competitive, [3H]-SB674042, CHO cell preparations)
Chain of human orexin 1 receptor (O43613 whole entry): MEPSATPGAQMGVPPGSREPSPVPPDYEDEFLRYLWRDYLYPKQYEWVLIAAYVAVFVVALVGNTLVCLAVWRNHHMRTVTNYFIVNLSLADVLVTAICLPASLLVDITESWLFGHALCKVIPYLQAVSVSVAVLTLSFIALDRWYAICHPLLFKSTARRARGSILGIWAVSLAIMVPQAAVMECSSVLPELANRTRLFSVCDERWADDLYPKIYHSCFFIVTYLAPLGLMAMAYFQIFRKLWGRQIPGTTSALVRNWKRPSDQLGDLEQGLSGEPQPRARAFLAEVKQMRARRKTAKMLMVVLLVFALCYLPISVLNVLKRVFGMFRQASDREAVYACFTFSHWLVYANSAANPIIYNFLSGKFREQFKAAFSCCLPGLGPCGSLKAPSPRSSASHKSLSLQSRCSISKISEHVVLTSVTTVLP

human orexin 2 receptor = human orexin 2 receptor (Homo sapiens (Human), UniProt O43614); assay: Human orexin 2 receptor radioligand binding (competitive, [3H]-EMPA, HEK293 cell preparations)
Chain of human orexin 2 receptor (O43614 whole entry): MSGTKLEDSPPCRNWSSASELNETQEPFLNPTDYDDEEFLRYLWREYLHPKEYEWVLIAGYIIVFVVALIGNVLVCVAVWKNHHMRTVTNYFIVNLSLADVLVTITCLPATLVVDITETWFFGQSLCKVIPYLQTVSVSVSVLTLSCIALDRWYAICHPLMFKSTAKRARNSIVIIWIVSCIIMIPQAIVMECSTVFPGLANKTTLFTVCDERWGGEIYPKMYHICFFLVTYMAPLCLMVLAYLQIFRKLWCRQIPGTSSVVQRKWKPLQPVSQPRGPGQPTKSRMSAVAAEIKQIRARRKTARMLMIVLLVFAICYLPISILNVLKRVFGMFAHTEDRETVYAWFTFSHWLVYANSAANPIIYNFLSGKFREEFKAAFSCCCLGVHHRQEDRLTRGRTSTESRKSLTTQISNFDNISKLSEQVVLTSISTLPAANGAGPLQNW

[1] = rat orexin 1 receptor, [3H]-SB674042 competition binding, read-out: rOX1 Ki (nm)
[2] = human orexin 1 receptor, [3H]-SB674042 competition binding, read-out: hOX1 Ki (nm)
[3] = human orexin 2 receptor, [3H]-EMPA competition binding, read-out: hOX2 Ki (nm)

| SMILES | Ki (human orexin 1 receptor; hOX1 Ki (nm)) | Ki (human orexin 2 receptor; hOX2 Ki (nm)) | Ki (human orexin 1 receptor; [2]) | Ki (human orexin 2 receptor; [3]) | other results |
| --- | --- | --- | --- | --- | --- |
| Cc1ccc(-c2ncccn2)c(C(=O)N2C3CCC2C(COc2ccccn2)C3)n1 (racemic) [Example 2, (±)-(6-methyl-3-(pyrimidin-2-yl)pyridin-2-yl)(2-((pyridin-2-yloxy)methyl)-7-azabicyclo[2.2.1]heptan-7-yl)methanone] | 23 nM | 500 nM |  |  | Ki (rat orexin 1 receptor; rOX1 Ki (nm)): 31 nM |
| Cc1ccc(-c2ncccn2)c(C(=O)N2C3CCC2C(COc2ccc(F)cn2)C3)c1 (racemic) [Example 33, (±)-(2-(((5-fluoropyridin-2-yl)oxy)methyl)-7-azabicyclo[2.2.1]heptan-7-yl)(5-methyl-2-(pyrimidin-2-yl)phenyl)methanone] |  |  | 9 nM | 39 nM | Ki (rat orexin 1 receptor; [1]): 15 nM |
| O=C(c1c(F)cccc1-n1nccn1)N1C2CCC1C(COc1cnc3ccccc3n1)C2 (racemic) [Example 35, (±)-(2-fluoro-6-(2H-1,2,3-triazol-2-yl)phenyl)(2-((quinoxalin-2-yloxy)methyl)-7-azabicyclo[2.2.1]heptan-7-yl)methanone] |  |  | 58 nM | 693 nM | Ki (rat orexin 1 receptor; [1]): 69 nM |
| Cc1ccc(-n2nccn2)c(C(=O)N2C3CCC2C(COc2ccc(Br)cn2)C3)n1 (racemic) [Example 49, (±)-(2-(((5-bromopyridin-2-yl)oxy)methyl)-7-azabicyclo[2.2.1]heptan-7-yl)(6-methyl-3-(2H-1,2,3-triazol-2-yl)pyridin-2-yl)methanone] | 69 nM |  |  | 192 nM | Ki (rat orexin 1 receptor; rOX1 Ki (nm)): 81 nM |
| CCOc1ncc2ccccc2c1C(=O)N1C2CCC1C(COc1ccccn1)C2 (racemic) [Example 83, (±)-(3-ethoxyisoquinolin-4-yl)(2-((pyridin-2-yloxy)methyl)-7-azabicyclo[2.2.1]heptan-7-yl)methanone] | 12 nM |  |  |  | Ki (rat orexin 1 receptor; rOX1 Ki (nm)): 17 nM |
| Cc1cc(C)nc(OCC2CC3CCC2N3C(=O)c2ccc(C)nc2-n2nccn2)n1 (racemic) [Example 151, (±)-(2-(((4,6-dimethylpyrimidin-2-yl)oxy)methyl)-7-azabicyclo[2.2.1]heptan-7-yl)(6-methyl-2-(2H-1,2,3-triazol-2-yl)pyridin-3-yl)methanone] |  |  | ≥ 10000 nM | ≥ 10000 nM |  |
| Cc1cc(C)nc(OCC2CC3CCC2N3C(=O)c2ccc(C)nc2-n2ccnn2)n1 (racemic) [Example 152, (±)-(2-(((4,6-dimethylpyrimidin-2-yl)oxy)methyl)-7-azabicyclo[2.2.1]heptan-7-yl)(6-methyl-2-(1H-1,2,3-triazol-1-yl)pyridin-3-yl)methanone] |  |  | ≥ 10000 nM | 5900 nM |  |
| Cc1cc(C)nc(OCC2CC3CCC2N3C(=O)c2ccccc2-c2nc(C)no2)n1 (racemic) [Example 153, (±)-(2-(((4,6-dimethylpyrimidin-2-yl)oxy)methyl)-7-azabicyclo[2.2.1]heptan-7-yl)(2-(3-methyl-1,2,4-oxadiazol-5-yl)phenyl)methanone] |  |  | 1100 nM | 440 nM |  |
| Cc1cc(C)nc(OCC2CC3CCC2N3C(=O)c2cccc(F)c2-n2nccn2)n1 (racemic) [Example 154, (±)-(2-(((4,6-dimethylpyrimidin-2-yl)oxy)methyl)-7-azabicyclo[2.2.1]heptan-7-yl)(3-fluoro-2-(2H-1,2,3-triazol-2-yl)phenyl)methanone] |  | 300 nM | 690 nM |  |  |
| CCOc1ccccc1C(=O)N1C2CCC1C(COc1ccc(F)cn1)C2 (racemic) [Example 165, (±)-(2-ethoxyphenyl)(2-(((5-fluoropyridin-2-yl)oxy)methyl)-7-azabicyclo[2.2.1]heptan-7-yl)methanone] | 409 nM |  |  | 550 nM |  |
| O=C(c1cc(F)ccc1-n1nccn1)N1C2CCC1C(COc1cnc3ccccc3n1)C2 (racemic) [Example 166, (±)-(5-fluoro-2-(2H-1,2,3-triazol-2-yl)phenyl)(2-((quinoxalin-2-yloxy)methyl)-7-azabicyclo[2.2.1]heptan-7-yl)methanone] |  |  | 106 nM | 1140 nM |  |
| Cc1ccc(OCC2CC3CCC2N3C(=O)c2cc(C)ccc2-n2nccn2)nc1 (racemic) [Example 167, (±)-5-methyl-2-(2H-1,2,3-triazol-2-yl)phenyl)(2-(((5-methylpyridin-2-yl)oxy)methyl)-7-azabicyclo[2.2.1]heptan-7-yl)methanone] |  | 14 nM | 9 nM |  |  |
| Cc1ccc(C(=O)N2C3CCC2C(COc2cnc4ccccc4n2)C3)c(-n2nccn2)n1 (racemic) [Example 168, (±)-(6-methyl-2-(2H-1,2,3-triazol-2-yl)pyridin-3-yl)(2-((quinoxalin-2-yloxy)methyl)-7-azabicyclo[2.2.1]heptan-7-yl)methanone] |  | 7300 nM | 2300 nM |  |  |
| O=C(c1cc(F)ccc1-n1nccn1)N1C2CCC1C(CNc1ccccn1)C2 (racemic) [Example 169, (±)-(5-fluoro-2-(2H-1,2,3-triazol-2-yl)phenyl)(2-((pyridin-2-ylamino)methyl)-7-azabicyclo[2.2.1]heptan-7-yl)methanone] |  |  | 9000 nM | 2530 nM |  |
| Cc1cc(C)nc(NCC2CC3CCC2N3C(=O)c2cc(F)ccc2-n2nccn2)n1 (racemic) [Example 170, (±)-(2-(((4,6-dimethylpyrimidin-2-yl)amino)methyl)-7-azabicyclo[2.2.1]heptan-7-yl)(5-fluoro-2-(2H-1,2,3-triazol-2-yl)phenyl)methanone] |  | 512 nM | 1960 nM |  |  |
| Cc1ccc(-n2nccn2)c(C(=O)N2C3CCC2C(COc2cc(C)nc(C(F)(F)F)n2)C3)c1 (racemic) [Example 180, (±)-(5-methyl-2-(2H-1,2,3-triazol-2-yl)phenyl)(2-(((6-methyl-2-(trifluoromethyl)pyrimidin-4-yl)oxy)methyl)-7-azabicyclo[2.2.1]heptan-7-yl)methanone] | 33 nM |  |  | 32 nM |  |
| O=C(c1ccccc1-n1nccn1)N1C2CCC1C(Nc1cnc(C(F)(F)F)cn1)C2 (racemic) [Example 182, (±)-((2-(2H-1,2,3-triazol-2-yl)phenyl)(2-((5-(trifluoromethyl)pyrazin-2-yl)amino)-7-azabicyclo[2.2.1]heptan-7-yl)methanone] | 38 nM | 1100 nM |  |  |  |
| Cc1cc(C)nc(NC2CC3CCC2N3C(=O)c2cc(F)ccc2-n2nccn2)n1 (racemic) [Example 197, (±)-(2-((4,6-dimethylpyrimidin-2-yl)amino)-7-azabicyclo[2.2.1]heptan-7-yl)(5-fluoro-2-(2H-1,2,3-triazol-2-yl)phenyl)methanone] | 9000 nM | 862 nM |  |  |  |
| Cc1cc(C)nc(NC2CC3CCC2N3C(=O)c2c(F)cccc2-n2nccn2)n1 (racemic) [Example 198, (±)-(2-((4,6-dimethylpyrimidin-2-yl)amino)-7-azabicyclo[2.2.1]heptan-7-yl)(2-fluoro-6-(2H-1,2,3-triazol-2-yl)phenyl)methanone] | 1410 nM |  |  | 704 nM |  |
| Cc1cc(C)nc(NC2CC3CCC2N3C(=O)c2ccc(F)cc2-n2nccn2)n1 (racemic) [Example 199, (±)-(2-((4,6-dimethylpyrimidin-2-yl)amino)-7-azabicyclo[2.2.1]heptan-7-yl)(4-fluoro-2-(2H-1,2,3-triazol-2-yl)phenyl)methanone] |  |  | 1630 nM | 553 nM |  |
| O=C(c1ccccc1-c1cccs1)N1[C@@H]2CC[C@H]1[C@H](COc1ccc(F)cn1)C2 (single isomer, unassigned) [Example 12A, ((1S*,2R*,4R*)-2-(((5-fluoropyridin-2-yl)oxy)methyl)-7-azabicyclo[2.2.1]heptan-7-yl)(2-(thiophen-2-yl)phenyl)methanone] | 177 nM | 339 nM |  |  |  |
| O=C(c1ccccc1-c1cccs1)N1[C@H]2CC[C@@H]1[C@@H](COc1ccc(F)cn1)C2 (single isomer, unassigned) [Example 12B, ((1R*,2S*,4S*)-2-(((5-fluoropyridin-2-yl)oxy)methyl)-7-azabicyclo[2.2.1]heptan-7-yl)(2-(thiophen-2-yl)phenyl)methanone] | 3 nM | 5 nM |  |  |  |
| O=C(c1ccccc1-n1nccn1)N1C2CCC1C(Nc1cnc(C(F)(F)F)cn1)C2 (single isomer, unassigned) [Example 183b] | 28 nM | 700 nM |  |  |  |
| CCOc1ncc2ccccc2c1C(=O)N1[C@@H]2CC[C@H]1[C@H](COc1ccccn1)C2 [Example 164, (3-ethoxyisoquinolin-4-yl)((1S,2R,4R)-2-((pyridin-2-yloxy)methyl)-7-azabicyclo[2.2.1]heptan-7-yl)methanone] |  |  |  |  | Ki (rat orexin 1 receptor; read-out: rOX1 Ki (nm)): 9 nM; Ki (human orexin 1 receptor; read-out: hOX1 Ki (nm)): 7 nM |
| O=C(c1ccccc1-n1nccn1)N1[C@@H]2CC[C@H]1[C@H](Nc1cnc(C(F)(F)F)cn1)C2 [Example 181, (2-(2H-1,2,3-triazol-2-yl)phenyl)((1S,2R,4R)-2-((5-(trifluoromethyl)pyrazin-2-yl)amino)-7-azabicyclo[2.2.1]heptan-7-yl)methanone] | 28 nM | 700 nM |  |  |  |
| Cc1noc(-c2c(F)cccc2C(=O)N2[C@@H]3CC[C@H]2[C@H](Nc2cnc(C(F)(F)F)cn2)C3)n1 [Example 254, (3-fluoro-2-(3-methyl-1,2,4-oxadiazol-5-yl)phenyl)((1S,2R,4R)-2-((5-(trifluoromethyl)pyrazin-2-yl)amino)-7-azabicyclo[2.2.1]heptan-7-yl)methanone] |  |  |  | 377 nM | Ki (human orexin 1 receptor; read-out: hOX1 Ki (nm)): 20 nM |
| O=C(c1ccc(F)cc1-n1nccn1)N1[C@@H]2CC[C@H]1[C@H](Nc1cnc(C(F)(F)F)cn1)C2 [Example 257, (4-fluoro-2-(2H-1,2,3-triazol-2-yl)phenyl)((1S,2R,4R)-2-((5-(trifluoromethyl)pyrazin-2-yl)amino)-7-azabicyclo[2.2.1]heptan-7-yl)methanone] |  |  | 102 nM | 3200 nM |  |
